Data as given in PMC11435890, “Enzymatic Hydrolysis of Resorcylic Acid Lactones by an Aeromicrobium sp” (Toxins, 2024).

Columns and labels:
[1] = tested on: T1, RALH (resorcylic acid lactone hydrolase); assay: LC-HRMS quantification of hydrolyzed product (HRAD), Michaelis-Menten fit; type: biochemical, Aeromicrobium sp. LRDC-1; settings: 50 mM Tris-HCl pH 8.0, 1% BSA, 37 °C, 25 nM RALH, 5 min
T1 construct: recombinant, codon-optimized, E. coli BL21(DE3); N-terminal His6-MBP tag removed with TEV protease; homologue alignment 303/316 residues (RALH vs ZenH); catalytic triad Ser117, Asp142, His292

[2] = tested on: T1, RALH (resorcylic acid lactone hydrolase); assay: LC-HRMS quantification of hydrolyzed product (HZEN), Michaelis-Menten fit; type: biochemical, Aeromicrobium sp. LRDC-1; settings: 50 mM Tris-HCl pH 8.0, 1% BSA, 37 °C, 25 nM RALH, 20 min
[3] = biological target: T2, ScHsp82 (ScHSP82) (Saccharomyces cerevisiae, UniProt P02829); assay: malachite green ATPase inhibition assay; type: biochemical; settings: 1 mM ATP, 4% DMSO, 100 mM Tris-HCl pH 7.5, 20 mM KCl, 6 mM MgCl2, 37 °C, 3 h
T2 construct: gene HSP82; Ni-NTA and gel permeation
T2 sequence (P02829 whole entry): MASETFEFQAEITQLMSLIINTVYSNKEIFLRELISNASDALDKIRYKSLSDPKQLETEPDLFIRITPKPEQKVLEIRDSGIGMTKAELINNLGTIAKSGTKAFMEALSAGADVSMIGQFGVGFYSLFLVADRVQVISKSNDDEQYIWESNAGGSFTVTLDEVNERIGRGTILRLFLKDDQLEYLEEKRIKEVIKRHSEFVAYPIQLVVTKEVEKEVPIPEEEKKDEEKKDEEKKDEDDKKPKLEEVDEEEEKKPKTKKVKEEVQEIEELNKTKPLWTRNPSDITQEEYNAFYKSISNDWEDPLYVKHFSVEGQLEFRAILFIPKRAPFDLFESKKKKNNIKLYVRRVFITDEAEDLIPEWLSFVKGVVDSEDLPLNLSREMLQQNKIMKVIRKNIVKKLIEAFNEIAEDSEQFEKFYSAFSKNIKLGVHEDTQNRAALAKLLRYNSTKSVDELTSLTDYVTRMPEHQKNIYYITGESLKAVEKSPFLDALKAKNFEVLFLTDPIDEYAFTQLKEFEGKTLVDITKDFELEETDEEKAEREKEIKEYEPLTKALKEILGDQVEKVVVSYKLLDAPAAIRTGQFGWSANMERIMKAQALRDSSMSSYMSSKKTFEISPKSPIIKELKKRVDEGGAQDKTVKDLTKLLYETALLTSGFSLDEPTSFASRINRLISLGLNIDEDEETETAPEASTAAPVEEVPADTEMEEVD

Compound	Km [1] [µM]	Km [2] [µM]	% decrease in ATPase activity at 50 μM [3] [%]
C[C@@H]1C[C@H]2O[C@@H]2/C=C\C=C\C(=O)Cc2c(Cl)c(O)cc(O)c2C(=O)O1 [III, RAD]	1200	–	–
C[C@H]1CCCC(=O)CCC/C=C/c2cc(O)cc(O)c2C(=O)O1 [I, ZEN]	–	24	53
